Measurements published in publication PMC8707786 (Pharmaceutics, 2021).
Like-named read-outs stand apart in the source and are kept apart here. Each block holds one compound with its values, some of them ahead of it.

Legend:
in vivo = conditions: male, Wistar, rat, po, 100 mg/kg, Cl/F (apparent plasma clearance)
[1] = rat, in vivo
[2] = Pharmacokinetics of sorafenib and sorafenib N-oxide in rat plasma (HPLC-UV), sorafenib alone or with morphine; conditions: for increase of AUC0–t in the presence of morphine / increase of Cmax in the presence of morphine: ISOR+MF vs. IISOR, rats; for ratio sorafenib N-oxide/sorafenib, Cmax: metabolite/parent ratio; for AUC0–t / AUC0–∞ / Cmax: rat plasma; for Cmax: mean ± SD
[3] = geometric mean ratio of the metabolite/parent ratio
[4] = geometric mean ratio, sorafenib + morphine vs. sorafenib alone
[5] = sorafenib 100 mg/kg p.o. + morphine 5 mg/kg i.p. (ISOR+MF, n = 8)
[6] = sorafenib 100 mg/kg p.o. alone (IISOR, n = 8)

- CL/F (in vivo): 13.3 mL/min/kg
- lower clearance in the ISOR+MF group ([1]; male, Wistar): 0.4 fold
- AUC0–∞ ([1]; male, Wistar, po, 100 mg/kg): 67.05 ± 16.70 µg·h/mL
- AUC0–t/(D/kg) [1]: 1.25 ± 0.32 µg·kg·h/mL/mg
- AUC0–∞/(D/kg) [1]: 1.33 ± 0.33 µg·kg·h/mL/mg
Structure (SMILES): CNC(=O)c1cc(Oc2ccc(NC(=O)Nc3ccc(Cl)c(C(F)(F)F)c3)cc2)ccn1 [sorafenib]
- adverse effects ([1]; po, 100 mg/kg): did not cause any adverse effects

Structure (SMILES): CNC(=O)c1cc(Oc2ccc(NC(=O)Nc3ccc(Cl)c(C(F)(F)F)c3)cc2)cc[n+]1[O-] [sorafenib N-oxide]
- increase of AUC0–t in the presence of morphine [2]: 61.9%
- increase of Cmax in the presence of morphine [2]: 145.5%
- increase of AUC0–t in the presence of morphine ([2]; 'higher by'): 0.6 fold
- increase of Cmax in the presence of morphine ([2]; 'higher by'): 1.5 fold
- ratio sorafenib N-oxide/sorafenib, AUC0–t: Gmean ratio (90% CI) ISOR+MF vs. IISOR [2, 3]: 1.07 (0.70; 1.65)
- ratio sorafenib N-oxide/sorafenib, AUC0–∞: Gmean ratio (90% CI) ISOR+MF vs. IISOR [2, 3]: 0.89 (0.53; 1.51)
- ratio sorafenib N-oxide/sorafenib, Cmax: Gmean ratio (90% CI) ISOR+MF vs. IISOR [2, 3]: 1.03 (0.67; 1.61)
- AUC0–t Gmean ratio (90% CI) ISOR+MF vs. IISOR [2, 4]: 1.64 (1.14; 2.36)
- AUC0–∞ Gmean ratio (90% CI) ISOR+MF vs. IISOR [2, 4]: 1.41 (0.95; 2.08)
- Cmax Gmean ratio (90% CI) ISOR+MF vs. IISOR [2, 4]: 2.15 (1.50; 3.08)
- kel Gmean ratio (90% CI) ISOR+MF vs. IISOR [2, 4]: 0.80 (0.47; 1.36)
- t1/2 Gmean ratio (90% CI) ISOR+MF vs. IISOR [2, 4]: 1.25 (0.73; 2.13)
- tmax Gmean ratio (90% CI) ISOR+MF vs. IISOR [2, 4]: 0.76 (0.41; 1.39)
- ratio sorafenib N-oxide/sorafenib, Cmax ([2]; sorafenib + morphine (ISOR+MF, n = 8)): 0.09 ± 0.07 (76.2) µg/mL
- ratio sorafenib N-oxide/sorafenib, Cmax ([2]; sorafenib alone (IISOR, n = 8)): 0.07 ± 0.02 (26.8) µg/mL
- AUC0–t [2, 5]: 6.64 ± 2.44 (36.8) µg × h/mL
- AUC0–∞ [2, 5]: 9.39 ± 2.97 (31.6) µg × h/mL
- Cmax [2, 5]: 0.27 ± 0.16 (57.5) µg/mL
- AUC0–t [2, 6]: 4.10 ± 1.56 (38.1) µg × h/mL
- AUC0–∞ [2, 6]: 8.61 ± 2.19 (25.4) µg × h/mL
- Cmax [2, 6]: 0.11 ± 0.02 (21.8) µg/mL
- kel (elimination rate constant) [2, 5]: 0.023 ± 0.012 (51.6) h^−1
- t1/2 (elimination phase) [2, 5]: 39.30 ± 22.54 (57.4) h
- tmax [2, 5]: 14.50 ± 11.40 (78.6) h
- kel (elimination rate constant) [2, 6]: 0.016 ± 0.010 (60.9) h^−1
- t1/2 (elimination phase) [2, 6]: 53.31 ± 25.23 (47.3) h
- tmax [2, 6]: 16.38 ± 8.21 (50.1) h
